Experimental data taken from EP2359864B1, “Targeting Vector-Phospholipid Conjugates” (Bracco Suisse SA, priority 2005, dated 2019).
Read-outs that look alike come from different tables or passages of the source. Values belong to the molecule of their own block, whether it stands above or below them. Numbered stars: 1 amine (or outer) side, 2 acyl side, 3 side chain; on linkers, the order of the positions; unused ones are H or OH. Side chains are listed from the residue outwards. * marks the point of attachment. DSPE = CCCCCCCCCCCCCCCCCC(=O)OC[C@H](COP(=O)(O)OCCN*)OC(=O)CCCCCCCCCCCCCCCCC; Glutaryl = O=C(CCCC(=O)[*:2])[*:1]

Columns and labels:
[1] = system: KDR; experiment: Binding affinity of peptide monomers to KDR (statement only); settings: statement in the description, no data shown
[2] = system: KDR receptor expressed on the endothelium of neovessels; experiment: In vivo ultrasound imaging of KDR-targeted contrast agents, rabbit VX2 tumor model; parameters: species or system New Zealand rabbits; settings: confirmed using echographic examination of VX2 tumors in rabbits
Procedure: The ability of ultrasound contrast agents containing KDR binding lipopeptides of the invention to bind to KDR-expressing tissue in vivo was assessed using a known model of angiogenesis: the rabbit VX2 tumor model.
A known model of angiogenic tissue was used to examine the ability of the KDR-targeted ultrasound microbubbles to localize to and provide an image of angiogenic tissue. The VX2 rabbit carcinoma was serially implanted in the dorsal muscle of New Zealand rabbits (Charles River Laboratories, France) weighting 2.5/3kg.
Tumor was surgically removed, placed into McCoy's culture medium containing 10% fetal calf serum, antibiotics, 1.5 mM Glutamax I and cut into small pieces that were rinsed to remove blood and debris. Then tumor pieces (3 to 5 cm^3) were placed in a 50 ml Falcon tube containing 5 mL of complete medium. The tumor tissue was ground (Polytron) until no more solid pieces were visible. The murky fluid was centrifuged for 5 minutes at 300g and the supernatant discarded. Seven mL of fresh medium was added per 5 mL of pellet.
Rabbits received first 0.3 mL of Vetranquil (Acepromazine, Sanofi, injected intramuscularly) and were then anesthetized with an intramuscular injection of Ketaminol®5/Xylazine (Veterinaria AG/Sigma) mixture (50/10 mg/mL, 0.7 mL/kg). One hundred microliters of VX2 tumor homogenate was injected intramuscularly. Fifteen days after implantation of VX2 tumors, animals were anesthetized again with the same mixture, plus subcutaneous injection of 50% Urethane (2mL/kg, s.c.) (Sigma) for imaging experiments. […]
After bubble injection (0.1 µL/kg of gas) using the preparations of either Example 16 or Example 17, insonation was stopped allowing bubbles to accumulate for 25 minutes. […] The amount of free circulating bubbles was then assessed by recording the signal obtained after 20 sec accumulation without insonation. Video frames from VX2 tumor imaging experiments were captured with video-capture and analysed with Image-Pro Plus 2.0 software. […]

[3] = Storage stability: formation of lyso- compound (analytical HPLC); type: physicochemical; settings: after 5 days at room temperature; material after Zorbax C-3 preparative HPLC
Procedure: The present invention provides methods for producing dimeric peptide-phospholipid conjugates having very low levels of TFA. While certain methods provide for the synthesis and purification of such conjugates on a gram scale, formation of a lyso- version of the conjugates has been observed upon storage of lyophilized material at 5°C or upon storage of aqueous solutions of the conjugates. It is believed that the lyso- compound is formed by TFA-promoted acid hydrolysis of one of the phospholipid fatty acid esters in dimer peptide-phospholipid conjugates.
Materials used and conditions for the analytical HPLC system include the following: Column: Zorbax 300SB C-3; 3 mm i.d. x 150 mm; 3.5 µm particle; Eluent A : H2O (HPLC Grade with 0.1% TFA by volume); Eluent B: CH3CN (0.1% TFA by volume). Elution: Initial condition: 50% B then a linear gradient of 50-90% B over 3 min, hold at 90% B for 11 min; Flow rate: 0.5 mL/min; Detection: UV at 220 nm. Ret. time: (Compound (21)): 6.77 min, Rt (lyso): 4.06 min.
The fractions that contained (21) were combined and lyophilized to give a white fluffy solid. This was dissolved in water-acetonitrile, then lyophilized again. This provided 70 mg product devoid of the lyso- compound. The recovery was about 70%. After chromatography was completed, the system was washed with 95% B for 15 min at a flow rate of 30 mL/min. […]

[4] = system: KDR; settings: as shown in co-pending U.S. Application No. 10/661,156; cited from earlier work
[5] = molecular target: Full-length KDR on transfected 293H cells (UniProt P35968); experiment: static binding of targeted microbubbles (DSPC/DPPG envelope) on KDR-transfected 293H cells minus mock-transfected cells
Chain of UniProt P35968 (P35968 20-1356 limits assumed): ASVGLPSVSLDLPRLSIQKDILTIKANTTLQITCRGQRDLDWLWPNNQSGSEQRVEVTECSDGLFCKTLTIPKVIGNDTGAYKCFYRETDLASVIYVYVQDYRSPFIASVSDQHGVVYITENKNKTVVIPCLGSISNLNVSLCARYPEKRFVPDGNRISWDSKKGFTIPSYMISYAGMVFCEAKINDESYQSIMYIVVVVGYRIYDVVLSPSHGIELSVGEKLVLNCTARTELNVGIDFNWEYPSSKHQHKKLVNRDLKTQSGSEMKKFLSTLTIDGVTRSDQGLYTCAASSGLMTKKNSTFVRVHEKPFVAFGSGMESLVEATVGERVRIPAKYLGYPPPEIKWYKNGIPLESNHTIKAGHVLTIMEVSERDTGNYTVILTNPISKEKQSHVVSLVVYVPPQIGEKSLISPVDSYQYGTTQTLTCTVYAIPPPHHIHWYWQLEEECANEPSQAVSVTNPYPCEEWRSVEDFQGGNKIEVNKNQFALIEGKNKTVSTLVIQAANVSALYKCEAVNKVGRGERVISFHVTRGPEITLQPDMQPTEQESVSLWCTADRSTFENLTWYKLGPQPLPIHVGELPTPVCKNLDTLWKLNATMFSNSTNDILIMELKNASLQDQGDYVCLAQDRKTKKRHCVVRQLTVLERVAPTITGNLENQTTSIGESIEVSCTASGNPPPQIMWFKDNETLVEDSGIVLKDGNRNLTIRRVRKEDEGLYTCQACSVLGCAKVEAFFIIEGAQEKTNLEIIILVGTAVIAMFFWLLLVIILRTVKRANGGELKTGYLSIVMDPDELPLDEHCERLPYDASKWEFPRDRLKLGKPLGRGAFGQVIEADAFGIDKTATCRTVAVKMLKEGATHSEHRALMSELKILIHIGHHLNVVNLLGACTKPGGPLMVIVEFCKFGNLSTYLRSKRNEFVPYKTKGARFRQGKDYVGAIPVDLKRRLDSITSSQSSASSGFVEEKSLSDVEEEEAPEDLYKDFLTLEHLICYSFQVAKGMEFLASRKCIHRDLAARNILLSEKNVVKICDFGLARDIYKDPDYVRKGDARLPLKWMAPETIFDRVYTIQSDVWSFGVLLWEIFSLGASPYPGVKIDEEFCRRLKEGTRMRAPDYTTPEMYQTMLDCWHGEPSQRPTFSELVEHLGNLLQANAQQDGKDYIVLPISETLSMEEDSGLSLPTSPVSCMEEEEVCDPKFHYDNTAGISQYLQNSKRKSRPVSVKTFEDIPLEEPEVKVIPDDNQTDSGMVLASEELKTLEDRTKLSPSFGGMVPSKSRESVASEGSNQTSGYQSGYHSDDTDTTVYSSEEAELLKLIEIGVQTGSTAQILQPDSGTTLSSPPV

[6] = molecular target: Full-length KDR on transfected 293H cells (UniProt P35968); experiment: static binding of targeted microbubbles (DPPE/DPPG envelope) on KDR-transfected 293H cells, 50% human plasma, microscopy
[7] = molecular target: Full-length KDR on transfected 293H cells (UniProt P35968); experiment: static binding of targeted microbubbles (DPPE/DPPG envelope) on KDR-transfected 293H cells minus mock-transfected cells
[8] = molecular target: Full-length KDR on transfected 293H cells (UniProt P35968); experiment: static binding of targeted microbubbles (DSPC/DPPG envelope) on KDR-transfected 293H cells, 50% human plasma, microscopy

binding affinity to KDR [1]: high affinity
Molecule: CC[C@H](C)[C@H](NC(=O)[C@H](CCC(=O)O)NC(=O)[C@H](CC(=O)O)NC(=O)[C@H](Cc1ccc(O)cc1)NC(=O)[C@H](Cc1ccc(O)cc1)NC(=O)[C@H](Cc1c[nH]c2ccccc12)NC(=O)[C@H](CC(=O)O)NC(=O)[C@H](CCC(N)=O)NC(=O)[C@H](C)NC(=O)[C@H](CCCNC(=N)N)NC(C)=O)C(=O)N[C@@H](CC(C)C)C(=O)N[C@@H](CO)C(=O)N[C@@H](CCSC)C(=O)N[C@@H](C)C(=O)N[C@@H](CC(=O)O)C(=O)N[C@@H](CCC(N)=O)C(=O)N[C@@H](CC(C)C)C(=O)N[C@@H](CCCNC(=N)N)C(=O)N[C@@H](Cc1c[nH]cn1)C(=O)N[C@@H](C)C(=O)N[C@@H](Cc1ccccc1)C(=O)N[C@@H](CC(C)C)C(=O)N[C@@H](CO)C(=O)NCC(=O)NCC(=O)NCC(=O)NCC(=O)NCC(=O)N[C@@H](CCCCN)C(N)=O [(2)]

Molecule: Ac-AGPTWCEDDWYYCWLFGTGGGK{Ac-VCWEDSWGGEVCFRYDP-GGGK[-Adoa-Adoa-Glut-K(DSPE-PEG2000-NH-Glut)]-NH2 cyclic (2-12) disulfide}-NH2 cyclic (6-13) disulfide [(11)]
KDR binding of gas filled microbubbles formulated with the conjugate [2]: high KDR binding

Molecule: Ac-AGPTWCEDDWYYCWLFGTGGGK{Ac-VCWEDSWGGEVCFRYDPGGGK[-Adoa-Adoa-Glut-K(DSPE-PEG2000-NH-Glut)]-NH2 cyclic (2-12) disulfide}-NH2 cyclic (6-13) disulfide [(21)]
formation of lyso- compound [3]: no lyso- compound formed

Molecule: Ac-AQDWYYDEILSMADQLRHAFLSGGGGGK(DSPE-PEG2000-NH-Glut)-NH2 [(31)]
KDR binding of gas filled microbubbles formulated with the conjugate [2]: high KDR binding

Molecule: Ac-AQDWYYDEILSMADQLRHAFLSGGGGGK-NH2 [(32)]
binding affinity to KDR [4]: high affinity

Molecule: Ac-RAQDWYYDEILSMADQLRHAFLSGGGGGK(DSPE-PEG2000-NH-Glut)-NH2 (not fully specified; N-acetyl, C-amide, DSPE-PEG2000-NH-Glut lipid conjugate) [(1)]
KDR binding of gas filled microbubbles formulated with the conjugate [2]: high KDR binding

% of surface covered by bound microbubbles (KDR-Mock) [5]: 27.7% | % of surface covered by bound microbubbles (KDR) [6]: 23.6% | % of surface covered by bound microbubbles (KDR-Mock) [7]: 23.5% | % of surface covered by bound microbubbles (KDR) [8]: 28%
Molecule: Ac-AQDWYYDEILSMADQLRHAFLSGGGGGK([Glutaryl-PEG2000-DSPE])-NH2 [monomeric peptide phospholipid conjugate (31)]
